Measured values reported in US20130281313A1, “PROGNOSTIC AND/OR PREDICTIVE BIOMARKERS AND BIOLOGICAL APPLICATIONS THEREOF” (INSTITUT GUSTAVE ROUSSY, priority 2010, published 2013).

Key:
Saccharomyces cerevisiae = assay: Yeast clonogenic survival; type: cell-based; conditions: yeast cells, pre-incubated with 1 mM AOAA before CDDP
Experimental: The haploid WT Saccharomyces cerevisiae strain BY4741 (MATa; his3Δ1; leu2Δ0; met15Δ0; ura3Δ0), its diploid counterpart BY4743 (MATa/MATα; his3Δ1/his3Δ1; leu2Δ0/leu2Δ0; MET15/met15Δ0; LYS2/lys2Δ0; ura3Δ0/ura3Δ0) as well as the null mutants employed in this study were obtained from were obtained from Euroscarf (Frankfurt, Germany). For large-scale experiments (see also FIG. 9), yeast cells were cultured on a routine basis at 28° C., on yeast extract peptone dextrose (YEPD) medium containing 1% yeast extract (Difco Laboratories, Detroit, USA), 2% bacto peptone (Difco Laboratories) and […] {Madeo, 2002}. […]
In all settings, cell number was then quantified by means of a CASY® cell counter (Schärfe System, Reutlingen, Germany) and 500 cells from each experimental condition were seeded on three parallel YEPD plates. Following 3 days of incubation at 28° C., plates were finally subjected to the quantification of colony forming units (CFUs). For each genotype or experimental condition, clonogenic survival was calculated as the ratio between the number of CFUs observed in treated and untreated conditions.

A549 cells [1] = assay: Cytofluorometric assessment of cell death (DiOC6(3)/PI co-staining); type: cell-based, human; conditions: A549 cells, 75 μM CDDP
Experimental: Unless otherwise specified, chemicals were purchased from Sigma-Aldrich (St. Louis, USA), culture media and supplements for cell culture from Gibco-Invitrogen (Carlsbad, USA) and plasticware from Corning (Corning, USA). […] Orlistat (Xenical®) was obtained from Roche (Basel, Switzerland). […] Undissolved material was removed by two sequential rounds of centrifugation at 12,000 G (5 min, room temperature, RT), supernatants were collected and stored at −80° C. under protection from light until use. In low-throughput experiments, all cell lines were treated with 2.5 mM pyridoxine (PN), exception made for A549 cells that received 5 mM PN.
To avoid depleting the siRNA library of selected sequences, siRNAs for validation experiments were purchased as custom molecules from Sigma-Aldrich. For low-throughput experiments, (see below for the transfection protocols employed in the siRNA screen), siRNA were transfected in A549 cells with Oligofectamine™ reagent (Invitrogen), following the manufacturer's instructions. Transfection with a non-targeting siRNA (siUNR) was employed as a negative control condition. Forty-eight hours after transfection, siRNA-mediated target downregulation was assessed by immunoblotting (see below).
All cytofluorometric determinations were carried out a FACSCalibur or a FACScan cytofluorometer (BD Biosciences, San Jose, USA) equipped with a 70 μm nozzle.
First line statistical analysis of cytofluorometric results was performed by using the CellQuest™ software (BD Biosciences), by gating on the events characterized by normal forward scatter and side scatter parameters. Apoptosis- and cell cycle-related data were further analyzed with Microsoft Excel (Microsoft Co., Redmond, USA) and statistical significance was assessed by means of two-tailed Student's t test (p<0.05).

[2] = system: isolated rat liver mitochondria; assay: Large-amplitude swelling of isolated mitochondria; conditions: cell-free experiments
Experimental: Mitochondria were isolated from the liver of male Wistar Kyoto rats (Charles River Laboratories Inc., Wilmington, USA) by differential centrifugation, as previously described {Zischka, 2008}. Briefly, immediately after organ collection, livers were homogenized with a glass teflon homogenizer in an isolation buffer containing 10 mM triethanolamine, 10 mM acetic acid, 280 mM sucrose, 0.2 mM EGTA (pH adjusted to 7.4 with KOH). Homogenates were cleared from debris and nuclei by two rounds of centrifugation at 750 G (10 min, 4° C.). […]
For large-amplitude swelling determinations, mitochondria were resuspended in swelling buffer (10 mM Tris-MOPS pH 7.4, 200 mM sucrose, 5 mM succinate, 1 mM phosphate, 10 μM EGTA and 2 μM rotenone) and pre-incubated for 5 min at RT with swelling buffer (negative control) or either of the following permeability transition inhibitors: 5 or 10 μM bongkrekic acid (BA), 1 or 5 μM cyclosporine A (CsA); 0.1 or 0.5 mM reduced glutathione (GSH) or 0.5 or 2 mM N-acetylcysteine (NAC). […] Permeability transition-induced large-amplitude swelling was assessed by measuring light scattering of mitochondrial suspensions at 540 nm on a standard microplate absorbance reader (μ-Quant™, Bio-Tek, Bad Friedrichshall, Germany) every 5 min over a total assay time of 30 min (at RT), as previously described {Zischka, 2008}. […]

A549 cells [3] = assay: Transcriptome studies (mRNA microarrays); type: cell-based, human
Experimental: NSCLC A549 cells were treated with 100 μM CDDP, 75 μM C2-CER or 100 μM CdCl2 for 12 h, or with 50 μM CDDP, C2-CER or CdCl2 for 24 h. Thereafter, cells were collected and lysed for RNA extraction of following established procedures {de La Motte Rouge, 2007}. mRNA expression changes were quantified on G4112A 44 k Whole Human Genome Oligo Microarrays (Agilent Technologies, Santa Clara, USA), as previously reported {Castedo, 2006}. mRNA microarrays underwent standardized post-hybridization processing, image acquisition and analysis (see below) {Castedo, 2006}.
Data from microarray experiments were analyzed with the Rosetta Resolver® System (Rosetta Biosoftware, Seattle, USA). The threshold for statistical significance of probe signals (Intensity) was set at p=10^−5. […] For each mRNA, fold change (FC) was then defined as Intensitysample/Intensitycontrol when Intensitysample>Intensitycontrol, or as—(Intensitycontrol/Intensitysample) when Intensitysample<Intensitycontrol. Ratios were calculated as Intensitysample/Intensitycontrol.

[4] = 12 h, 100 μM CDDP, 75 μM C2-CER or 100 μM CdCl2, vs untreated cells
[5] = 24 h, 50 μM CDDP, C2-CER or CdCl2, vs untreated cells

NOCC(=O)O [AOAA, aminooxyacetic acid]
toxicity of CDDP upon addition of the CCBL1 inhibitor (clonogenic survival) (Saccharomyces cerevisiae): reduced the toxicity of CDDP
toxicity of CDDP upon addition of the CCBL1 inhibitor (A549 cells [1]): reduced the toxicity of CDDP

[Cl][Cd][Cl] [CdCl2, cadmium chloride]
direct mitochondrion-permeabilizing effects [2]: can mediate direct mitochondrion-permeabilizing effects
Fold change, ADAR (NM_001111) transcript (A549 cells [3]; [4]): n.s.
Fold change, ALDH7AT (NM_001182) transcript (A549 cells [3]; [4]): −1.65
Fold change, CD151 (NM_004357) transcript (A549 cells [3]; [4]): n.s.
Fold change, CLIC1 (NM_001288) transcript (A549 cells [3]; [4]): 4.60
Fold change, COMMO9 (NM_014186) transcript (A549 cells [3]; [4]): 1.85
Fold change, COX5B (NM_001802) transcript (A549 cells [3]; [4]): n.s.
Fold change, COX7C (NM_001867) transcript (A549 cells [3]; [4]): n.s.
Fold change, DHRSX (NM_145177) transcript (A549 cells [3]; [4]): 1.64
Fold change, EBP (NM_006579) transcript (A549 cells [3]; [4]): n.s.
Fold change, EEF2 (NM_001901) transcript (A549 cells [3]; [4]): n.s.
Fold change, FDXK (NM_003681) transcript (A549 cells [3]; [4]): n.s.
Fold change, FN3KRP (NM_024619) transcript (A549 cells [3]; [4]): −3.34
Fold change, HDLBP (NM_005336) transcript (A549 cells [3]; [4]): n.s.
Fold change, HGD (NM_000187) transcript (A549 cells [3]; [4]): −2.37
Fold change, IL6R (NM_000565) transcript (A549 cells [3]; [4]): n.s.
Fold change, KHSRP (NM_003685) transcript (A549 cells [3]; [4]): n.s.
Fold change, LOC389727 (NM_372092) transcript (A549 cells [3]; [4]): 2.09
Fold change, MAT2A (NM_005911) transcript (A549 cells [3]; [4]): −4.30
Fold change, MOL1 (NM_021960) transcript (A549 cells [3]; [4]): 1.37
Fold change, MPP6 (NM_016447) transcript (A549 cells [3]; [4]): −3.80
Fold change, OSTCL (NM_145303) transcript (A549 cells [3]; [4]): n.s.
Fold change, P5MC5 (NM_002805) transcript (A549 cells [3]; [4]): n.s.
Fold change, PLK1S1 (NM_018474) transcript (A549 cells [3]; [4]): n.s.
Fold change, PPM1J (NM_005167) transcript (A549 cells [3]; [4]): n.s.
Fold change, RNF26 (NM_032015) transcript (A549 cells [3]; [4]): −1.77
Fold change, RRAD (NM_004185) transcript (A549 cells [3]; [4]): 3.33
Fold change, SEMA3G (NM_000379) transcript (A549 cells [3]; [4]): n.s.
Fold change, SLC22A16AS (NM_007105) transcript (A549 cells [3]; [4]): −1.43
Fold change, SOCS6 (NM_004232) transcript (A549 cells [3]; [4]): n.s.
Fold change, TMED1 (NM_006858) transcript (A549 cells [3]; [4]): n.s.
Fold change, TRIP4 (NM_016213) transcript (A549 cells [3]; [4]): n.s.
Fold change, UBE2L3 (NM_003347) transcript (A549 cells [3]; [4]): n.s.
Fold change, UBE21 (NM_014176) transcript (A549 cells [3]; [4]): −2.06
Fold change, W282 (NM_018029) transcript (A549 cells [3]; [4]): 1.32
Fold change, ADAR (NM_001111) transcript (A549 cells [3]; [5]): −1.33
Fold change, ALDH7AT (NM_001182) transcript (A549 cells [3]; [5]): −1.82
Fold change, CD151 (NM_004357) transcript (A549 cells [3]; [5]): n.s.
Fold change, CLIC1 (NM_001288) transcript (A549 cells [3]; [5]): −1.29
Fold change, COMMO9 (NM_014186) transcript (A549 cells [3]; [5]): 1.87
Fold change, COX5B (NM_001802) transcript (A549 cells [3]; [5]): n.s.
Fold change, COX7C (NM_001867) transcript (A549 cells [3]; [5]): n.s.
Fold change, DHRSX (NM_145177) transcript (A549 cells [3]; [5]): 1.38
Fold change, EBP (NM_006579) transcript (A549 cells [3]; [5]): n.s.
Fold change, EEF2 (NM_001901) transcript (A549 cells [3]; [5]): n.s.
Fold change, FDXK (NM_003681) transcript (A549 cells [3]; [5]): n.s.
Fold change, FN3KRP (NM_024619) transcript (A549 cells [3]; [5]): −2.05
Fold change, HDLBP (NM_005336) transcript (A549 cells [3]; [5]): n.s.
Fold change, HGD (NM_000187) transcript (A549 cells [3]; [5]): −2.34
Fold change, IL6R (NM_000565) transcript (A549 cells [3]; [5]): n.s.
Fold change, KHSRP (NM_003685) transcript (A549 cells [3]; [5]): n.s.
Fold change, LOC389727 (NM_372092) transcript (A549 cells [3]; [5]): n.s.
Fold change, MAT2A (NM_005911) transcript (A549 cells [3]; [5]): −3.05
Fold change, MOL1 (NM_021960) transcript (A549 cells [3]; [5]): 1.07
Fold change, MPP6 (NM_016447) transcript (A549 cells [3]; [5]): n.s.
Fold change, OSTCL (NM_145303) transcript (A549 cells [3]; [5]): n.s.
Fold change, P5MC5 (NM_002805) transcript (A549 cells [3]; [5]): n.s.
Fold change, PLK1S1 (NM_018474) transcript (A549 cells [3]; [5]): n.s.
Fold change, PPM1J (NM_005167) transcript (A549 cells [3]; [5]): n.s.
Fold change, RNF26 (NM_032015) transcript (A549 cells [3]; [5]): −1.51
Fold change, RRAD (NM_004185) transcript (A549 cells [3]; [5]): 2.04
Fold change, SEMA3G (NM_000379) transcript (A549 cells [3]; [5]): n.s.
Fold change, SLC22A16AS (NM_007105) transcript (A549 cells [3]; [5]): −1.53
Fold change, SOCS6 (NM_004232) transcript (A549 cells [3]; [5]): n.s.
Fold change, TMED1 (NM_006858) transcript (A549 cells [3]; [5]): n.s.
Fold change, TRIP4 (NM_016213) transcript (A549 cells [3]; [5]): n.s.
Fold change, UBE2L3 (NM_003347) transcript (A549 cells [3]; [5]): n.s.
Fold change, UBE21 (NM_014176) transcript (A549 cells [3]; [5]): −1.50
Fold change, W282 (NM_018029) transcript (A549 cells [3]; [5]): n.s.
